Laboratory results: patent US10670605B2, “Cysteine reactive probes and uses thereof” (The Scripps Research Institute, priority 2015, dated 2020)
Where “and” joins values, the source holds several entries; their conditions need not be identical. Equal values may be shown once.

Columns and labels:
[1] = biological target: T1, DDX59 C414 (Q5T1V6) (Homo sapiens, UniProt Q5T1V6); experiment: Competitive isoTOP-ABPP, cell lysates; assay type: binding; details: for isoTOP-ABPP reactivity ratio, Q5T1V6_C414 / isoTOP-ABPP reactivity profile ratio, Q5T1V6_C414: 500 μm
T1 sequence (Q5T1V6 1-619): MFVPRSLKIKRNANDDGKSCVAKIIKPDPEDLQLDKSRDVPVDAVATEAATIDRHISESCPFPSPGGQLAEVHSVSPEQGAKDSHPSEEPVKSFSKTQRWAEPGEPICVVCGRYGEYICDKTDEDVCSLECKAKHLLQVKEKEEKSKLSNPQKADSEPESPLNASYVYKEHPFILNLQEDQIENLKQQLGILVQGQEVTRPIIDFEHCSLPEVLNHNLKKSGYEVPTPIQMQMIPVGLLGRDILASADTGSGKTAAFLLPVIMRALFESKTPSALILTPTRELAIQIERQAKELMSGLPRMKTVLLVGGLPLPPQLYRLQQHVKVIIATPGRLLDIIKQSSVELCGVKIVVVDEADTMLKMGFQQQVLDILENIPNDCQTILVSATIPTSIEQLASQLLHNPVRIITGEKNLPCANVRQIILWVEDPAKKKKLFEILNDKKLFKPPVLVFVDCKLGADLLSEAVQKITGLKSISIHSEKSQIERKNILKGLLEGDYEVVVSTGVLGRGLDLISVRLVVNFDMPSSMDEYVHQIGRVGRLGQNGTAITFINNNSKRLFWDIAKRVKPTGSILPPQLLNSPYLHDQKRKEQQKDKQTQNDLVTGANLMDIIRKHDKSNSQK

[2] = biological target: T2, cysteines in MDA-MB-231 and Ramos cells (Homo sapiens, UniProt O75521); experiment: Competitive isoTOP-ABPP in situ (fragment-treated cells); assay type: cell-based
T2 sequence (O75521 39-394): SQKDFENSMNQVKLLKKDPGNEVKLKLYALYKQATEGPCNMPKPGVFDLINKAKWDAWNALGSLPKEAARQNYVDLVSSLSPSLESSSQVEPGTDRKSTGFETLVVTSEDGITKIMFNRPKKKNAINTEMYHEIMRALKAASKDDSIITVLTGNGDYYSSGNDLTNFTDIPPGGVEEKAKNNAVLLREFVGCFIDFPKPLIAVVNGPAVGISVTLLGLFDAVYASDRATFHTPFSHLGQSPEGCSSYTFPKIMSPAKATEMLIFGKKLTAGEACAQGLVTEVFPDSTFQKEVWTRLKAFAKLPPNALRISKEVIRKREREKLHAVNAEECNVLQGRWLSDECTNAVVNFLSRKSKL

[3] = biological target: T3, NR3C1 C302 (P04150) (Homo sapiens, UniProt P04150); experiment: Competitive isoTOP-ABPP, cell lysates; assay type: binding; details: for isoTOP-ABPP ratio, P04150_C302 / R value (DMSO/fragment): 500 μM; for isoTOP-ABPP ratio, P04150_C302: invitro; for isoTOP-ABPP reactivity profile ratio, P04150_C302 / isoTOP-ABPP reactivity ratio, P04150_C302: 500 μm; for R value (DMSO/fragment): in vitro, MDA-MB-231
T3 sequence (P04150 1-777): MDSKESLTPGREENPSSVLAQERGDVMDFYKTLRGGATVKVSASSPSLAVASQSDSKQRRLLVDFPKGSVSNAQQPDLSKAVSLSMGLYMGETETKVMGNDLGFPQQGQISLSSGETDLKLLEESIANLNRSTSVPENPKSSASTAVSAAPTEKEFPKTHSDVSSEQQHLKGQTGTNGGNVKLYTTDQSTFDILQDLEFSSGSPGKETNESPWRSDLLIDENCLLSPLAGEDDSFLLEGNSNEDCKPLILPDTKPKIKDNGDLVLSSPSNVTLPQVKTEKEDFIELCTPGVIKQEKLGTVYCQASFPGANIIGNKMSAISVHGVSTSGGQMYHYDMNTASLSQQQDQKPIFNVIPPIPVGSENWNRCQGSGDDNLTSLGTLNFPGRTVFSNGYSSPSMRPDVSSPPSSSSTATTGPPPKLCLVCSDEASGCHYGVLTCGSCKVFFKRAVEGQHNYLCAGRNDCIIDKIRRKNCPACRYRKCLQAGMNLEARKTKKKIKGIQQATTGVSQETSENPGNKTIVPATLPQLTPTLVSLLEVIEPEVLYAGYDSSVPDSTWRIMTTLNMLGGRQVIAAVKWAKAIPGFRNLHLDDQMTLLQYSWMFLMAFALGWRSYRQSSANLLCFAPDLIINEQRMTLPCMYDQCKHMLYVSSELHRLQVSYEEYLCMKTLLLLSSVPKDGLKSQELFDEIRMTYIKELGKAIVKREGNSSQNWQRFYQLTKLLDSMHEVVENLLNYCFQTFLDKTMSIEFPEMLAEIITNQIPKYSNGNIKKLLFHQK

O=C(CCl)N(Cc1ccc(F)cc1)C12CC3CC(CC(C3)C1)C2 [compound 34]
isoTOP-ABPP reactivity ratio, Q5T1V6_C414 ([1]; in-vitro_ramos_231): 0.6

COc1ccccc1OCCNC(=O)CCl [compound 28]
isoTOP-ABPP ratio O75521_C380 ([2]; 200 μM, insitu, 231): 0.8

O=C(CCl)N1CCC(C(O)(c2ccccc2)c2ccccc2)CC1 [compound 20]
isoTOP-ABPP ratio (reactivity profile), Q5T1V6_C414 ([1]; 500 μm in-vitro ramos): 3.1

CC(Br)C(=O)Nc1cc(C(F)(F)F)cc(C(F)(F)F)c1 (stereo not drawn) [compound 24]
isoTOP-ABPP ratio (reactivity profile), Q5T1V6_C414 ([1]; 500 μm in-vitro ramos): 1.7

Cc1ccc(C=C(C#N)C(=O)NCCN2CCOCC2)cc1 [compound 41]
isoTOP-ABPP ratio O75521_C380 ([2]; 200 μM, insitu, 231): 1.1
isoTOP-ABPP reactivity ratio, Q5T1V6_C414 ([1]; in-vitro_ramos): 1.0
isoTOP-ABPP reactivity ratio, Q5T1V6_C414 ([1]; in-vitro_ramos_231): 1.2

O=C(CCl)NC(=O)NC12CC3CC(CC(C3)C1)C2 [compound 12]
isoTOP-ABPP ratio O75521_C312 ([2]; 200 μM, insitu, 231): 4.2
isoTOP-ABPP ratio O75521_C380 ([2]; 200 μM, insitu, 231): 1.9
isoTOP-ABPP ratio, P04150_C302 ([3]; ramos): 1.3

COc1cc(NC(=O)CCl)cc(OC)c1 [compound 43]
isoTOP-ABPP reactivity profile ratio, P04150_C302 ([3]; in-vitro_ramos_231): 1.5

O=C(CCl)NCCc1c[nH]c2ccccc12 [compound 13]
isoTOP-ABPP ratio O75521_C312 ([2]; 200 μM, insitu, 231): 0.7
isoTOP-ABPP ratio O75521_C380 ([2]; 200 μM, insitu, 231): 1.0
isoTOP-ABPP ratio, Q5T1V6_C414 ([1]; 500 μM, invitro, ramos): 1.2

O=C(CCl)N1CCOCC1 [compound 22]
isoTOP-ABPP ratio (reactivity profile), Q5T1V6_C414 ([1]; 500 μm in-vitro ramos): 1.3
isoTOP-ABPP ratio (reactivity profile), P04150_C302 ([3]; 500 μm in-vitro ramos): 0.9

O=C(CCl)N1CCC(Cc2ccccc2)CC1 [compound 9]
isoTOP-ABPP reactivity O75521_C312 ECI2 ([2]; 200 μM, insitu, 231): 0.5
isoTOP-ABPP reactivity O75521_C380 ECI2 ([2]; 200 μM, insitu, 231): 0.7

COc1ccc(C2CC(c3cccs3)=NN2C(=O)CCl)cc1 (stereo not drawn) [compound 4]
isoTOP-ABPP reactivity O75521_C312 ECI2 ([2]; 100 μM in situ 231): 1.0
isoTOP-ABPP reactivity O75521_C380 ECI2 ([2]; 100 μM in situ 231): 1.6

O=C(CCl)Nc1ccc(-c2ccccc2)cc1 [compound 52]
isoTOP-ABPP reactivity profile ratio, P04150_C302 ([3]; in-vitro_ramos): 1.8

O=C(CCl)NC12CC3CC(CC(C3)C1)C2 [compound 21]
isoTOP-ABPP ratio O75521_C312 ([2]; 200 μM, insitu, 231): 1.6
isoTOP-ABPP ratio O75521_C380 ([2]; 200 μM, insitu, 231): 1.8
isoTOP-ABPP ratio (reactivity profile), Q5T1V6_C414 ([1]; 500 μm in-vitro ramos_231): 1.2

C=CC(=O)N1CCC(Cc2ccccc2)CC1 [compound 53]
isoTOP-ABPP reactivity profile ratio, Q5T1V6_C414 ([1]; in-vitro_ramos_231): 0.8

O=C(CCl)Nc1cccc2ncccc12 [compound 51]
isoTOP-ABPP ratio O75521_C380 ([2]; 200 μM, insitu, 231): 1.0

Cn1cc(S(=O)(=O)N2CCOCC2)cc1C(=O)NC(=O)CCl [compound 11]
isoTOP-ABPP ratio O75521_C380 ([2]; 100 μM in situ 231): 0.8
isoTOP-ABPP ratio, P04150_C302 ([3]; ramos): 1.5

C=CC(=O)Nc1cc(F)c(N2CCN(C(=O)OC(C)(C)C)CC2)c(F)c1 [compound 38]
isoTOP-ABPP ratio O75521_C312 ([2]; 200 μM, insitu, 231): 1.1
isoTOP-ABPP ratio O75521_C380 ([2]; 200 μM, insitu, 231): 0.9
isoTOP-ABPP reactivity ratio, Q5T1V6_C414 ([1]; in-vitro_ramos): 1.8
isoTOP-ABPP reactivity ratio, Q5T1V6_C414 ([1]; in-vitro_ramos_231): 0.9

O=C(CCl)Nc1cc(C(F)(F)F)cc(C(F)(F)F)c1 [compound 3]
R value (DMSO/fragment) ([1]; 500 μM, invitro, ramos): 6.0
R value (DMSO/fragment) [3]: 7.6

CC1CCc2ccccc2N1C(=O)CCl (stereo not drawn) [compound 45]
isoTOP-ABPP ratio O75521_C312 ([2]; 200 μM, insitu, 231): 0.7
isoTOP-ABPP ratio O75521_C380 ([2]; 200 μM, insitu, 231): 1.2

C=CC(=O)N(Cc1cccnc1)c1ccc(Oc2ccccc2)c(C(F)(F)F)c1 [compound 15]
isoTOP-ABPP ratio (reactivity profile), Q5T1V6_C414 ([1]; 500 μm in-vitro ramos): 1.0
isoTOP-ABPP ratio (reactivity profile), P04150_C302 ([3]; 500 μm in-vitro ramos): 0.9

COc1ccc2c(c1)CCCN2C(=O)CCl [compound 2]
isoTOP-ABPP reactivity O75521_C312 ECI2 ([2]; 200 μM, insitu, 231): 0.7
isoTOP-ABPP reactivity O75521_C380 ECI2 ([2]; 200 μM, insitu, 231): 0.6
R value (DMSO/fragment) ([1]; 500 μM, in vitro, MDA-MB-231): 20.0
R value (DMSO/fragment) ([1]; 500 μM, invitro, ramos): 20.0
R value (DMSO/fragment) [3]: 2.3

CCN(CC)c1ccc(S(N)(=O)=O)cc1NC(=O)CCl [compound 30]
isoTOP-ABPP reactivity ratio, Q5T1V6_C414 ([1]; in-vitro_ramos): 2.0

COc1cc2c(cc1OC)CN(C(=O)CCl)CC2 [compound 8]
isoTOP-ABPP reactivity O75521_C312 ECI2 ([2]; 200 μM, insitu, 231): 0.5
isoTOP-ABPP reactivity O75521_C380 ECI2 ([2]; 200 μM, insitu, 231): 0.8

C=CC(=O)N1CCC(c2noc3ccc(F)cc23)CC1 [compound 37]
isoTOP-ABPP reactivity ratio, Q5T1V6_C414 ([1]; in-vitro_ramos): 1.0
isoTOP-ABPP reactivity ratio, P04150_C302 ([3]; in-vitro_ramos): 0.9

N#C/C(=C\c1cc(C(F)(F)F)cc(C(F)(F)F)c1)C(N)=O [compound 23]
isoTOP-ABPP ratio (reactivity profile), Q5T1V6_C414 ([1]; 500 μm in-vitro ramos): 1.4
isoTOP-ABPP ratio (reactivity profile), P04150_C302 ([3]; 500 μm in-vitro ramos): 4.7

CC(C)CCOCCNC(=O)CCl [compound 27]
isoTOP-ABPP ratio O75521_C312 ([2]; 200 μM, insitu, 231): 1.1
isoTOP-ABPP ratio O75521_C380 ([2]; 200 μM, insitu, 231): 1.6
isoTOP-ABPP ratio (reactivity profile), Q5T1V6_C414 ([1]; 500 μm in-vitro ramos): 1.0
isoTOP-ABPP ratio (reactivity profile), Q5T1V6_C414 ([1]; 500 μm in-vitro ramos_231): 0.8
isoTOP-ABPP ratio (reactivity profile), P04150_C302 ([3]; 500 μm in-vitro ramos_231): 1.3 and 1.0

C=CC(=O)Nc1cc(C)c(Br)cc1C [compound 40]
isoTOP-ABPP reactivity ratio, Q5T1V6_C414 ([1]; in-vitro_ramos): 1.4

O=C(CCl)Nc1ccccc1C1CCCCCC1 [compound 35]
isoTOP-ABPP reactivity ratio, Q5T1V6_C414 ([1]; in-vitro_ramos): 1.3
isoTOP-ABPP reactivity ratio, P04150_C302 ([3]; in-vitro_ramos): 0.9

O=C(CCl)NC1C(O)OC(CO)C(O)C1O (mixture of isomers) [compound 44]
isoTOP-ABPP reactivity profile ratio, Q5T1V6_C414 ([1]; in-vitro_ramos_231): 0.8

O=C(CCl)N1CCN(S(=O)(=O)c2ccccc2F)CC1 [compound 10]
isoTOP-ABPP ratio O75521_C312 ([2]; 200 μM, insitu, 231): 5.0
isoTOP-ABPP ratio O75521_C380 ([2]; 200 μM, insitu, 231): 4.8
isoTOP-ABPP ratio, P04150_C302 [3]; 231: 4.1

O=C(CCl)N1CCN(CC(=O)N2CCOCC2)CC1 [compound 29]
isoTOP-ABPP ratio O75521_C380 ([2]; 200 μM, insitu, ramos): 1.2
